18 compounds from patent EP4656642A1, “ESTROGEN RECEPTOR PROTEOLYSIS TARGETING CHIMERA COMPOUND AND USE THEREOF” (GAN & LEE PHARM CO., LTD, priority 2023, dated 2024) can be followed below.

Holding throughout (format): cell-based
For one experiment, the system named is MCF-7 cells. Nature of the experiment: Inhibition of cell proliferation of MCF-7 cells (CCK-8, 9 days). To be noted: treated for 9 days, CCK-8 kit (Table 6). In outline:
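Read-out was CCK-8 viability after 9-day continuous exposure (37°C, 5% CO2) of MCF-7 cells plated at 800/well in 10% FBS DMEM across several compound concentrations. Values are proliferation IC50s.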

Experiment [1] has as its target T1, ERα (Homo sapiens, UniProt P03372).
T1 sequence (P03372 1-595): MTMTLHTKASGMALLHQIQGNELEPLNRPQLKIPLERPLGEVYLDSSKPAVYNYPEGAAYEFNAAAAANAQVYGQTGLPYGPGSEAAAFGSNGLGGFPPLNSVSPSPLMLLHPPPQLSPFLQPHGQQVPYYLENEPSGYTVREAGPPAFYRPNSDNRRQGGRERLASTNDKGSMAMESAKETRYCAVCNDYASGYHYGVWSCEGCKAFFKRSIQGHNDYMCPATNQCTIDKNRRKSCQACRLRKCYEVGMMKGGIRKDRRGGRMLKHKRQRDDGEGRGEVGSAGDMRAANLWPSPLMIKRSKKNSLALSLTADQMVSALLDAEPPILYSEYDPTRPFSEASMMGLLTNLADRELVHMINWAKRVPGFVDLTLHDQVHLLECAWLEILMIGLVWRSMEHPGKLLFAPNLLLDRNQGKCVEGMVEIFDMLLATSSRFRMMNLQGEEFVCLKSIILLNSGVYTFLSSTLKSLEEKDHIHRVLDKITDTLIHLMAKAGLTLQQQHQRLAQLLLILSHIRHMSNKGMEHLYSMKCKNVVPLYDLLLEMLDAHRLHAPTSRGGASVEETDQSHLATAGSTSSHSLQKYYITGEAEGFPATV
Nature of the experiment: Degradation of ERα in T-47D cells (immunoblotting, 4 h). The arrangement: host or cells: T-47D. In outline:
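ERα protein levels were assessed by immunoblot of RIPA lysates (with protease inhibitor) after 4 h exposure at 37°C. Compound was added in DMSO to T-47D cells at final concentrations of 0.15-1000 nM.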

The target in experiment [2] is T1, ERα. Nature of the experiment: Degradation of ERα in MCF-7 cells (immunoblotting, 4 h). In outline: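 Degradation rate reflects ERα band intensity, corrected to an internal reference protein, relative to control. Values come from Western blotting of lysates from MCF-7 cells exposed 4 h at 37°C to compounds at final concentrations of 0.15-1000nM.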

The structures appear in SMILES notation.

With `CN(C1CCN(c2ccc([C@@H]3c4ccc(O)cc4CC[C@@H]3c3ccccc3)cc2)CC1)[C@H]1CC[C@@H](C(=O)N2CCC3(CC2)COc2c3ccc3c2CN(C2CCC(=O)NC2=O)C3=O)CC1` (stereo partly drawn) [B35], in the experiment on MCF-7 cells, the IC50 came out at 49.7 nM. Besides, the “Degradation rate (%) of ERα in T-47D cells” value worked out at 74% at ERα [1] (1nM compound) and 88% at ERα [1] (10nM compound). The entries for the “Degradation rate (%) of ERα in MCF-7 cells” value at ERα [2] (1nM compound) and on ERα [2] (10nM compound) were 60% and 72%, respectively.
For `O=C1CCC(N2Cc3cc4c(cc3C2=O)OC2(CC4)CN(C3CCC(N4CCN(c5ccc([C@@H]6c7ccc(O)cc7CC[C@@H]6c6ccccc6)cc5)CC4)CC3)C2)C(=O)N1` (stereo partly drawn) [B16] the same measures were 740 nM, 24%, 60%, -36% and 16%.
For `O=C1CCC(N2Cc3cc4c(cc3C2=O)OC2(CC4)CN(C3CCN(C(=O)C4CCN(c5ccc([C@@H]6c7ccc(O)cc7CC[C@@H]6c6ccccc6)cc5)CC4)CC3)C2)C(=O)N1` (stereo partly drawn) [A82] the same measures were 448 nM, 51%, 78%, 16% and 51%.
With `C[C@H]1C[C@@H](N2CCC3(CC2)COc2c3ccc3c2CN(C2CCC(=O)NC2=O)C3=O)CCN1C(=O)C1CCN(c2ccc([C@@H]3c4ccc(O)cc4CC[C@@H]3c3ccccc3)cc2)CC1` (stereo partly drawn) [G11], it took 890 nM to reach half-maximal inhibition in the experiment on MCF-7 cells (IC50). The “Degradation rate (%) of ERα in T-47D cells” value was found to be 55% at ERα [1] (1nM compound) and 80% at ERα [1] (10nM compound). Moreover, the “Degradation rate (%) of ERα in MCF-7 cells” value at ERα [2] (1nM compound) was 38%; at ERα [2] (10nM compound), 56%.
On the same counts, the results for `O=C1CCC(N2Cc3c(ccc4c3OCC43CCN(C4CC5(C4)CN(c4ccc([C@@H]6c7ccc(O)cc7CC[C@@H]6c6ccccc6)cc4)C5)CC3)C2=O)C(=O)N1` (stereo partly drawn) [L18] are 544 nM, 13%, 8%, -6% and 5%.
For `O=C1CCC(N2Cc3c(ccc4c3OCC43CCN(C[C@H]4CC[C@H](C(=O)N5CCN(c6ccc([C@@H]7c8ccc(O)cc8CC[C@@H]7c7ccccc7)cc6)CC5)CC4)CC3)C2=O)C(=O)N1` (stereo partly drawn) [G18] the same measures were 129 nM, 49%, 78%, 63% and 77%.
Turning to `O=C1CCC(N2Cc3c(ccc4c3OCC43CCN(C(=O)[C@H]4C[C@@H](OC5CCN(c6ccc([C@@H]7c8ccc(O)cc8CC[C@@H]7c7ccccc7)cc6)CC5)C4)CC3)C2=O)C(=O)N1` (stereo partly drawn) [H61], the IC50 in the experiment with MCF-7 cells was determined as 4020 nM. Also, the “Degradation rate (%) of ERα in T-47D cells” value on ERα [1] (1nM compound) was determined as 63%; on ERα [1] (10nM compound), 76%. For the same compound, the “Degradation rate (%) of ERα in MCF-7 cells” value on ERα [2] (1nM compound) stood at 37%; at ERα [2] (10nM compound), 40%.
`O=C1CCC(N2Cc3c(ccc4c3OCC43CCN(CC(=O)N4CCC(C#Cc5ccc([C@@H]6c7ccc(O)cc7CC[C@@H]6c6ccccc6)cc5)CC4)CC3)C2=O)C(=O)N1` (stereo partly drawn) [A79]: the IC50 in the experiment with MCF-7 cells was 2.59 nM. Moreover, the “Degradation rate (%) of ERα in T-47D cells” value at ERα [1] (1nM compound) amounted to 40%; on ERα [1] (10nM compound), 60%. In addition, the “Degradation rate (%) of ERα in MCF-7 cells” value on ERα [2] (1nM compound) was 45%; on ERα [2] (10nM compound), 47%.
For `O=C1CCC(N2C(=O)c3cc4c(cc3C2=O)OC2(CCN(C(=O)CN3CCC5(CC3)CCN(c3ccc([C@@H]6c7ccc(O)cc7CC[C@@H]6c6ccccc6)cc3)CC5)CC2)C4)C(=O)N1` (stereo partly drawn) [A64] the same measures were 206 nM, 12%, 61%, 13% and 47%.
On the same counts, the results for `CN(C(=O)CN1CCC2(CC1)COc1c2ccc2c1CN(C1CCC(=O)NC1=O)C2=O)C1CCC2(CC1)CN(c1ccc([C@@H]3c4ccc(O)cc4CC[C@@H]3c3ccccc3)cc1)C2` (stereo partly drawn) [H49] are 5.08 nM, 48%, 77%, 50% and 71%.
The compound `O=C1CCC(N2Cc3c(ccc4c3OCC43CCN(C4CC5CC4CN5C4CC5(CCN(c6ccc([C@@H]7c8ccc(O)cc8CC[C@@H]7c7ccccc7)cc6)CC5)C4)CC3)C2=O)C(=O)N1` (stereo partly drawn) [D3] had an IC50 in the experiment with MCF-7 cells of 6.58 nM. The entries for the “Degradation rate (%) of ERα in T-47D cells” value on ERα [1] (1nM compound) and at ERα [1] (10nM compound) were 34% and 73%, respectively. For the same compound, the “Degradation rate (%) of ERα in MCF-7 cells” value was found to be 38% at ERα [2] (1nM compound) and 60% on ERα [2] (10nM compound).
For `C[C@@H]1Cc2c([nH]c3ccccc23)[C@@H](c2c(F)cc(N3CCC4(CCN(C(=O)CN5CCC6(CC5)COc5c6ccc6c5CN(C5CCC(=O)NC5=O)C6=O)C4)CC3)cc2F)N1CC(F)F` (stereo partly drawn) [A119] the same measures were 19.4 nM, 51%, 73%, 12% and 66%.
For `CC1(C)CC(N2CCC3(CC2)COc2c3ccc3c2CN(C2CCC(=O)NC2=O)C3=O)CCN1C(=O)C1CCN(c2ccc([C@@H]3c4ccc(O)cc4CC[C@@H]3c3ccccc3)cc2)CC1` (stereo partly drawn) [K28] the same measures were 8.18 nM, 62%, 86%, 66% and 86%.
Turning to `O=C1CCC(N2Cc3c(ccc4c3OCC43CCN(C(=O)CN4CC5(C4)CN(c4ccc([C@@H]6c7ccc(O)cc7CC[C@@H]6c6ccccc6)cc4)C5)CC3)C2=O)C(=O)N1` (stereo partly drawn) [B20], the 50% inhibitory concentration (IC50) in the experiment with MCF-7 cells was found to be 1630 nM. The “Degradation rate (%) of ERα in T-47D cells” value at ERα [1] (1nM compound) is 47%; on ERα [1] (10nM compound) it was 73%. Also, the “Degradation rate (%) of ERα in MCF-7 cells” value is recorded as 42% on ERα [2] (1nM compound) and 64% on ERα [2] (10nM compound).
For `O=C1CCC(N2Cc3c(ccc4c3OCC43CCN(C(=O)[C@H]4CC[C@@H](N(CC5CC5)CC5CCN(c6ccc([C@@H]7c8ccc(O)cc8CC[C@@H]7c7ccccc7)cc6)CC5)CC4)CC3)C2=O)C(=O)N1` (stereo partly drawn) [N11] the same measures were 4.29 nM, 53%, 57%, 35% and 64%.
On the same counts, the results for `C[C@@H]1Cc2c([nH]c3ccccc23)[C@@H](c2c(F)cc(N3CCC4(CC3)CC(N3CC[C@@H](N5CCC6(CC5)COc5c6ccc6c5CN(C5CCC(=O)NC5=O)C6=O)[C@@H](F)C3)C4)cc2F)N1CC(F)F` (stereo partly drawn) [D10] are 12.5 nM, 24%, 77%, 3% and 58%.
Take `O=C1CCC(N2Cc3cc4c(cc3C2=O)OC2(CC4)CN(C3CC4(CCC5(CCN(c6ccc([C@@H]7c8ccc(O)cc8CC[C@@H]7c7ccccc7)cc6)CC5)CC4)C3)C2)C(=O)N1` (stereo partly drawn) [H24]: the IC50 in the experiment on MCF-7 cells was 1180 nM. Also, the “Degradation rate (%) of ERα in T-47D cells” value on ERα [1] (1nM compound) came out at 16%; at ERα [1] (10nM compound) it was 21%. Besides, the results for the “Degradation rate (%) of ERα in MCF-7 cells” value at ERα [2] (1nM compound) and at ERα [2] (10nM compound) were -7% and 11%, respectively.
For `O=C1CCC(N2Cc3c(ccc4c3OCC43CCN(CCN4CCC5(CC4)CCN(c4ccc([C@@H]6c7ccc(O)cc7CC[C@@H]6c6ccccc6)cc4)CC5)CC3)C2=O)C(=O)N1` (stereo partly drawn) [A71] the same measures were 14.5 nM, 52%, 86%, 32% and 73%.
